Reference: US4826844A, “Substituted 1-(aralkyl-piperazinoalkyl) cycloalkanols” (American Home Products Corporation, priority 1987, dated 1989)

Assays:
[1] = system: synaptosomial uptake of norepinephrine; assay: inhibition of synaptosomial uptake of norepinephrine (3H-NE); type: biochemical; conditions: for IC50 / Neuronal Uptake NE % Inhibition at 10 μM: synaptosomes; for IC50: read-out: Neuronal Uptake NE IC50
From the text: (§1) The pharmacological test data obtained for a representative number of compounds of this invention in accordance with the standard experimental test procedures disclosed above appear in the following table: […]

[2] = system: synaptosomial uptake of serotonin; assay: inhibition of synaptosomial uptake of serotonin (14C-5-HT); type: biochemical; conditions: synaptosomes
From the text: as §1

5-HT1A receptor = molecular target: T1, 5-HT1A receptor (Rattus norvegicus, UniProt P19327); assay: inhibition of [3H] 8-hydroxy-2-(di-n-propylamino)tetralin binding at 5-HT1A receptor sites; conditions: rat hippocampal tissue
T1 construct: from tissue; host or cells: rat hippocampus
T1 sequence (P19327 1-422): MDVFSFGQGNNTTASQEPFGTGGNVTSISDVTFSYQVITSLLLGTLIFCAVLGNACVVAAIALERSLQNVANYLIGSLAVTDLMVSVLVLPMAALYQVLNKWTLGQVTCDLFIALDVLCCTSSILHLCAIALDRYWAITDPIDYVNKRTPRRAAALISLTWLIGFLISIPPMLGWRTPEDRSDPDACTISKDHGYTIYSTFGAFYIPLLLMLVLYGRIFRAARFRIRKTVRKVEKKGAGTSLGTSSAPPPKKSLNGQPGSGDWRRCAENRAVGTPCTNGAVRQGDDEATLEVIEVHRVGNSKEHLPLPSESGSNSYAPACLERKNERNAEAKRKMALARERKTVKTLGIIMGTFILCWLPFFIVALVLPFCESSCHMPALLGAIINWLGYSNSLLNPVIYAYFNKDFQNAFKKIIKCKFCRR
From the text: 8-hydroxy-2-(di-n-propylamino)tetralin binding at 5-HT binding sites in rat hippocampal tissue, following the procedure of Hall et al., J. Neurochem., 44 1685 (1985).

dopamine D2 receptors = molecular target: T2, dopamine D2 receptors (Rattus norvegicus, UniProt P61169); assay: inhibition of 3H-haloperidol binding at dopamine D2 receptors in homogenized limbic brain tissue; conditions: for inhibition at 1 µM: read-out: Receptor Binding D2 % Inhibition at 1 μM
T2 construct: found in homogenized limbic brain tissue; from tissue; host or cells: homogenized limbic brain tissue
T2 sequence (P61169 whole entry): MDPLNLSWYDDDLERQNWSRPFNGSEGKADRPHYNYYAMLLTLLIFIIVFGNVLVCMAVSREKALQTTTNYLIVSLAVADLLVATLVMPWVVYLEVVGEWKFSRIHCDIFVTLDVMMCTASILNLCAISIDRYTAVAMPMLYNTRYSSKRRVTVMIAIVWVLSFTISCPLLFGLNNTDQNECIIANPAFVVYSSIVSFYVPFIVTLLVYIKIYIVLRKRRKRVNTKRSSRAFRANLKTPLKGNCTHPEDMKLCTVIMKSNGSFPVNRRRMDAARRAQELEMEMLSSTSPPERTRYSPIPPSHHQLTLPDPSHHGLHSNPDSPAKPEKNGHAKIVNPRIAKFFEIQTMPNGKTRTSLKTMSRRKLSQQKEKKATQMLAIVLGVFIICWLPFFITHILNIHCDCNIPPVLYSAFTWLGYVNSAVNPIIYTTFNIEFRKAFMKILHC
From the text: The actual percentage reduction of ^3 H-haloperidol binding is reported infra and the larger the number, the greater the potential for dopamine D2 receptor binding and antipsychotic activity.

Compound | inhibition at 1 µM (5-HT1A receptor) | inhibition at 1 µM (dopamine D2 receptors; 3H-haloperidol) | further results
COc1ccc(C(CCN2CCN(Cc3ccccc3)CC2)C2(O)CCCCC2)cc1 (stereo not drawn) [Example 8, 1-[1-(4-Methoxyphenyl)-3-[4-(phenylmethyl)-1-piperazinyl]propyl]cyclohexanol] | 99% | 55% | IC50 [1]: 610 nM; Neuronal Uptake 5HT % Inhibition at 10 μM [2]: 67%
COc1ccc(C(CCN2CCN(Cc3cccc(OC)c3)CC2)C2(O)CCCCC2)cc1 (stereo not drawn) [Example 10] | 99% | 73% | 
COc1cccc(C(CCN2CCN(Cc3cccc(Cl)c3)CC2)C2(O)CCCCC2)c1 (stereo not drawn) [Example 4, 1-[3-[4-[(3-Chlorophenyl)methyl]-1-piperazinyl]-1-(3-methoxyphenyl)propyl]cyclohexanol] | 66% | 90% | dopamine D2 receptor affinity / binding potential (in words) (dopamine D2 receptors): typical D2 binding potential
COc1cccc(C(CCN2CCN(Cc3ccc(Cl)cc3)CC2)C2(O)CCCCC2)c1 (stereo not drawn) [Example 5, 1-[3-[4-[(4-Chlorophenyl)methyl]-1-piperazinyl]-1-(3-methoxyphenyl)propyl]cyclohexanol] | 97% | 51% | 
CN1CCN(CC(c2cccc(Cl)c2)C2(O)CCCCC2)CC1 (stereo not drawn) [Example 26, 1-[1-(3-Chlorophenyl)-2-(4-methyl-1-piperazinyl)ethyl]cyclohexanol] | 0% | 26% | antidepressant activity by inhibition of synaptosomial uptake of norepinephrine and/or serotonin (in words) [1]: selective antidepressant activity; IC50 [1]: 180 nM; Neuronal Uptake 5HT % Inhibition at 10 μM [2]: 33%
COc1ccc(C(CCN2CCN(Cc3cccc(Cl)c3)CC2)C2(O)CCCCC2)cc1 (stereo not drawn) [Example 12, 1-[3-[4-[(3-Chlorophenyl)methyl]-1-piperazinyl]-1-(4-methoxyphenyl)propyl]cyclohexanol] | 100% | 95% | 
COc1cccc(C(CCN2CCN(Cc3ccccc3OC)CC2)C2(O)CCCCC2)c1 (stereo not drawn) [Example 6, 1-[1-(3-Methoxyphenyl)-3-[4-[(2-methoxyphenyl)methyl]-1-piperazinyl]propyl]cyclohexanol] | 93% | 91% | 
COc1ccc(C(CCN2CCN(Cc3cccc(C(F)(F)F)c3)CC2)C2(O)CCCCC2)cc1 (stereo not drawn) [Example 11, 1-[1-(4-Methoxyphenyl)-3-[4-[[3-(trifluoromethyl)phenyl]methyl]-1-piperazinyl]propyl]cyclohexanol] | 100% | 100% | dopamine D2 receptor affinity / binding potential (in words) (dopamine D2 receptors): typical D2 binding potential
COc1ccc(C(CCN2CCN(c3ncccn3)CC2)C2(O)CCCCC2)cc1 (stereo not drawn) [Example 24] |  | 11% | 
COc1cccc(C(CCN2CCN(Cc3cccc(F)c3)CC2)C2(O)CCCCC2)c1 (stereo not drawn) [Example 7, 1-[3-[4-[(3-Fluorophenyl)methyl]-1-piperazinyl]-1-(3-methoxyphenyl)propyl]cyclohexanol] | 93% | 89% | 
COc1cccc(C(CCN2CCN(Cc3ccccc3)CC2)C2(O)CCCCC2)c1 (stereo not drawn) [Example 1, 1-[1-(3-Methoxyphenyl)-3-[4-(phenylmethyl)-1-piperazinyl]propyl]cyclohexanol] |  |  | IC50 [1]: 2030 nM; IC50 ([2]; read-out: Neuronal Uptake 5HT IC50): 390 nM; Ki (5-HT1A receptor): 10 nM; affinity at 5-HT1A receptor binding sites (in words) (5-HT1A receptor): strong affinity at 5-HT1A receptor binding sites; Ki (dopamine D2 receptors; 3H-haloperidol, read-out: Receptor Binding D2 Ki): 209 nM
OC1(C(CN2CCN(c3cccc(Cl)c3)CC2)c2cccc(Cl)c2)CCCCC1 (stereo not drawn) [Example 19, 1-[1-(3-Chlorophenyl)-2-[4-(3-chlorophenyl)-1-piperazinyl]ethyl]cyclohexanol] | 94% | 32% | 
COc1cccc(C(CCN2CCN(c3cncc(Cl)n3)CC2)C2(O)CCCCC2)c1 (stereo not drawn) [Example 3, 1-[3-[4-(6-Chloro-2-pyrazinyl)-1-piperazinyl]-1-(3-methoxyphenyl)propyl]cyclohexanol] |  | 41% | Ki (5-HT1A receptor): 122 nM
COc1cccc(C(CN2CCN(Cc3ccccc3)CC2)C2(O)CCCCC2)c1 (stereo not drawn) [Example 15, 1-[1-(3-Methoxyphenyl)-2-[4-(phenylmethyl)-1-piperazinyl]ethyl]cyclohexanol] | 91% | 90% | 
COc1cccc(C(CCN2CCN(c3ncccn3)CC2)C2(O)CCCCC2)c1 (stereo not drawn) [Example 2, 1-[1-(3-Methoxyphenyl)-3-[4-(2-pyrimidinyl)-1-piperazinyl]propyl]cyclohexanol] | 78% | 59% | 
COc1ccc(C(CCN2CCN(c3cncc(Cl)n3)CC2)C2(O)CCCCC2)cc1 (stereo not drawn) [Example 9, 1-[3-[4-(6-Chloro-2-pyrazinyl)-1-piperazinyl]-1(4-methoxyphenyl)propyl]cyclohexanol] | 57% | 15% | 
COc1ccc(C(CCN2CCN(Cc3ccccc3OC)CC2)C2(O)CCCCC2)cc1 (stereo not drawn) [Example 13] | 93% | 77% | 
CN1CCN(CC(c2cccc(C(F)(F)F)c2)C2(O)CCCCC2)CC1 (stereo not drawn) [Example 27, 1-[2-(4-Methyl-1-piperazinyl)-1-[3-(trifluoromethyl)phenyl]ethyl]cyclohexanol] | 5% | 0% | Neuronal Uptake NE % Inhibition at 10 μM [1]: 86%; antidepressant activity by inhibition of synaptosomial uptake of norepinephrine and/or serotonin (in words) [1]: selective antidepressant activity; Neuronal Uptake 5HT % Inhibition at 10 μM [2]: 0%
COc1cccc(C(CN2CCN(c3cccc(Cl)c3)CC2)C2(O)CCCCC2)c1 (stereo not drawn) [Example 18] | 97% | 39% | Neuronal Uptake NE % Inhibition at 10 μM [1]: 38%; Neuronal Uptake 5HT % Inhibition at 10 μM [2]: 62%
COc1ccc(C(CCN2CCN(Cc3ccc(C(F)(F)F)cc3)CC2)C2(O)CCCCC2)cc1 (stereo not drawn) [Example 14, 1-[1-(4-Methoxyphenyl)-3-[4-[[4-(trifuloromethyl)phenyl]methyl]-1-piperazinyl]propyl]cyclohexanol] | 63% | 25% | 
